In patent publication US20250250303A1 (THE TRUSTEES OF COLUMBIA UNIVERSITY IN THE CITY OF NEW YORK, priority 2022, published 2025):
Bridge positions count the residues as written; N and C are the ends. Peptide text beside a SMILES is read from it.

Assays:
IR F96A = target: T1, IR F96A (Homo sapiens, UniProt P06213, F123A); test: IR activation assay in 293 FT cells, IR F96A mutant; assay type: cell-based; details: 10 nM for 10 min
T1 construct: expressed in transfected cells; host or cells: 293 FT cells

IR N15K = target: T2, IR N15K (Homo sapiens, UniProt P06213, N42K); test: IR activation assay in 293 FT cells, IR N15K mutant; assay type: cell-based; details: 10 min
T2 construct: expressed in transfected cells; host or cells: 293 FT cells

IR D496K = target: T3, IR D496K (Homo sapiens, UniProt P06213, D523K); test: IR activation assay in 293 FT cells, IR D496K mutant; assay type: cell-based; details: 10 min
T3 construct: expressed in transfected cells; host or cells: 293 FT cells

IR F701A/F705A = target: T4, IR F701A/F705A (Homo sapiens, UniProt P06213, F728A/F732A); test: IR activation assay in 293 FT cells, IR F701A/F705A mutant; assay type: cell-based; details: 10 min
T4 construct: expressed in transfected cells; host or cells: 293 FT cells

IR R345A = target: T5, IR R345A (Homo sapiens, UniProt P06213, R372A); test: IR activation assay in 293 FT cells, IR R345A mutant; assay type: cell-based; details: 10 nM for 10 min
T5 construct: expressed in transfected cells; host or cells: 293 FT cells

IR E697A = target: T6, IR E697A (Homo sapiens, UniProt P06213, E724A); test: IR activation assay in 293 FT cells, IR E697A mutant; assay type: cell-based; details: 10 nM for 10 min
T6 construct: expressed in transfected cells; host or cells: 293 FT cells

IR signaling = IR signaling in primary mouse hepatocytes; assay type: cell-based
Procedure: Primary hepatocytes were isolated from 2-month-old male mice with a standard two-step collagenase perfusion procedure as described earlier with some modifications. […] After 1-2 sec upon appearance of white spots in the liver, the portal vein was cut with scissors to wash out blood, and then the liver was perfused with 30 ml of Liver Digest Medium (Thermo Scientific, Cat. #17703034). Dissected liver was gently washed with low glucose DMEM and transferred to sterile culture dish containing 15 ml Liver Digest Medium. The isolated liver cells were filtered through the 70 μm cell strainer into a 50 ml tube. After centrifuge at 50 g for 5 min at 4° C., cells were washed with cold low glucose DMEM three times. […] After 2 hr., the medium was changed to serum free low-glucose DMEM.
The cells were incubated with the lysis buffer B [50 mM Hepes pH 7.4, 150 mM NaCl, 10% Glycerol, 1% Triton X-100, 1 mM EDTA, 100 mM sodium fluoride, 2 mM sodium orthovanadate, 20 mM sodium pyrophosphate, 0.5 mM dithiothreitol (DTT), 2 mM phenylmethylsulfonyl fluoride (PMSF)] supplemented with complete Protease Inhibitor Cocktail (Roche), PhosSTOP (Sigma), and 25 U/ml turbo nuclease (Accelagen) on ice for 1 hr. After centrifuge at 20,817 g at 4° C. for 10 min, the concentrations of cell lysate were measured using Micro BCA Protein Assay Kit (Thermo Scientific). About 50-60 μg total proteins were analyzed by SDS-PAGE and quantitative Western blotting. The following antibodies were purchased from commercial sources: Anti-IR-pY1150/1151 (WB, 1:1000; 19H6; labeled as pY IR, Cat. #3024), anti-AKT (WB, 1:1000; 40D4, Cat. #2920), anti-pS473 AKT (WB, 1:1000; D9E, Cat. #4060), anti-ERK1/2 (WB, 1:1000; L34F12, Cat. #4696), anti-pERK1/2 (WB, […]; 197G2, Cat. #4377), anti-IRS1-pS616 (WB, 1:1000; C15H5, Cell Signaling, Cat. #3203); anti-IRS1 (WB, 1:1000; A301-158A, Bethyl Laboratory); anti-IR (WB, 1:500, CT-3, Santa Cruz; labeled as IR for primary hepatocytes and MEFs, Cat. #sc-57342); anti-IR (WB, 1:1000; EPR23566-103; labeled as IR for FIG. 31, ab278100, Abcam); anti-Myc (WB, 1:2000; 9E10, Cat. #11667149001, Roche; labeled as IR for 293 FT cells). For quantitative western blots, anti-rabbit immunoglobulin G (IgG) (H+L) (WB, 1:5000; Dylight 800 conjugates, Cat. #5151) and anti-mouse IgG (H+L) (WB, 1:5000; Dylight 680 conjugates, Cat. #5470) (Cell Signaling) were used as secondary antibodies. The membranes were scanned with the Odyssey Infrared Imaging System (Li—COR, Lincoln, NE).

SREBP1 = test: Immunofluorescence assay for SREBP1 translocation in primary hepatocytes; assay type: cell-based, mouse; details: 100 nM for 30 min
Procedure: Primary hepatocytes were as described in the primary hepatocyte isolation section. […] Cells were fixed with 4% paraformaldehyde for 10 min. The fixed cells were incubated with PBS for 30 min and 3% BSA in PBS with 0.1% Triton X-100 (0.1% PBST) for 1 hr., and then treated with anti-SREBP1 antibodies (20B12, Millipore, Cat. #MABS1987, 1:200) in 3% BSA in 0.1% PBST at 4° C. overnight. After being washed, cells were incubated with secondary antibodies (Alexa Fluor 488 goat anti-rabbit, Invitrogen, Cat. #A11008, 1:200) for 1 hr. Cells were washed and mounted on microscope slides in ProLong Gold Antifade reagent with DAPI (Invitrogen). Images were acquired as a series of 0.2 μm stacks with a Leica Thunder Imager (Leica Microsystems Inc.). Raw images were deconvolved using LAS X Software (Leica Microsystems Inc.). The nuclear edges and the nuclear SREBP1 signal were defined with Image J. Identical exposure times and magnifications were used for all comparative analyses.

T47D = test: IR signaling in cancer cells, T47D; assay type: cell-based; details: 10, 100 or 300 nM for 10 minutes
MCF7 = test: Cancer cell proliferation, MCF7; assay type: cell-based
[1] = system: upstream MAPK pathway proteins (e.g., SOS1, SHP2); test: Quantitative phosphoproteomics of skeletal muscle; assay type: in vivo, mice; details: compared to insulin
Procedure: FIG. 6A illustrates sequences of S597 and analogs. […] Liver (3 min) and skeletal muscle (5 min) were collected after injection. Quantification of data shown in Mean±SD. […] Two-tailed student t-test; *p<0.05; **p<0.01; ***p<0.001; ****p<0.0001 (PBS set as the control); ††p<0.01 and ††††p<0.0001. […] Compared to insulin-treated samples, blue and red sites indicate downregulation and upregulation of phosphorylation by S597, respectively.

IR = IR (Homo sapiens, UniProt P06213); details: cited from earlier work
[2] = Zucker diabetic fatty rats; cited from earlier work
IR D707A = IR D707A (Homo sapiens, UniProt P06213, D734A); test: IR activation assay in 293 FT cells, IR D707A mutant; assay type: cell-based; set-up: expressed in transfected cells; host or cells: 293 FT cells; details: 10 min
IR D707A, sequence (P06213 28-1370 isoform P06213-2 D734A limits assumed): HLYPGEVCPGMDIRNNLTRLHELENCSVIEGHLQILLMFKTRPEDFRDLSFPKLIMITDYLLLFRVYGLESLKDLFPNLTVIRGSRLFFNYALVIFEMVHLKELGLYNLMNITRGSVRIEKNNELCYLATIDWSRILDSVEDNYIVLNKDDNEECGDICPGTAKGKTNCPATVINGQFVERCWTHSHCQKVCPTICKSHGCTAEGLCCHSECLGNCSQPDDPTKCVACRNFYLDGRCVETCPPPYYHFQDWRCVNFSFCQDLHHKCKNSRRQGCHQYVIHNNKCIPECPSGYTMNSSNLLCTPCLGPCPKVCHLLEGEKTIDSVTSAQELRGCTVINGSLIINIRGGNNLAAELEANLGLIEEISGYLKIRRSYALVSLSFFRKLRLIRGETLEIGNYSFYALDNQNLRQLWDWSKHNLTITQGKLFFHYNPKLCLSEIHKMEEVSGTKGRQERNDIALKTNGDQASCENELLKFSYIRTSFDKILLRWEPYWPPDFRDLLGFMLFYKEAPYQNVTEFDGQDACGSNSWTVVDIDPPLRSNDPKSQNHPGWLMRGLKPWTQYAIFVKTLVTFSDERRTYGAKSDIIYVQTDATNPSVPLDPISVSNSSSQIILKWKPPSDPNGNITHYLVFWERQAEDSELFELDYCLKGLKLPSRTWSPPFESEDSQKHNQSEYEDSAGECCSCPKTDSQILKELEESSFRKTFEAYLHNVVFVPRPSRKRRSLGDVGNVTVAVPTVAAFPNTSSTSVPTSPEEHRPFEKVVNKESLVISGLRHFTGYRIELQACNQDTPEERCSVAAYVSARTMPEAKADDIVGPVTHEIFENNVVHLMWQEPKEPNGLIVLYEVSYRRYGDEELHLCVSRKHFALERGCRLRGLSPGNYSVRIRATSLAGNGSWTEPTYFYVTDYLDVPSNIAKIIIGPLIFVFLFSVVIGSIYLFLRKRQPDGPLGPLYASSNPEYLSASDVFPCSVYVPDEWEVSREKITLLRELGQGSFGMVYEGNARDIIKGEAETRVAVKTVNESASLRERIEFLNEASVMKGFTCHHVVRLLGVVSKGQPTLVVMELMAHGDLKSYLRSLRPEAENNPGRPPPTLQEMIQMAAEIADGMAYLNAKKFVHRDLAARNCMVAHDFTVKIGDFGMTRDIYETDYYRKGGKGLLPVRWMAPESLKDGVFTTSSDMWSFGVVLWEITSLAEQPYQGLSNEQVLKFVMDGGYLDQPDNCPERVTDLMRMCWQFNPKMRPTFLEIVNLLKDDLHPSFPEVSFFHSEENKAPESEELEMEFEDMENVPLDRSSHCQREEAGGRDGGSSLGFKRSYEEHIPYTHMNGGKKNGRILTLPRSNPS
IR D707A, sequence (P06213 763-1382 partner limits assumed): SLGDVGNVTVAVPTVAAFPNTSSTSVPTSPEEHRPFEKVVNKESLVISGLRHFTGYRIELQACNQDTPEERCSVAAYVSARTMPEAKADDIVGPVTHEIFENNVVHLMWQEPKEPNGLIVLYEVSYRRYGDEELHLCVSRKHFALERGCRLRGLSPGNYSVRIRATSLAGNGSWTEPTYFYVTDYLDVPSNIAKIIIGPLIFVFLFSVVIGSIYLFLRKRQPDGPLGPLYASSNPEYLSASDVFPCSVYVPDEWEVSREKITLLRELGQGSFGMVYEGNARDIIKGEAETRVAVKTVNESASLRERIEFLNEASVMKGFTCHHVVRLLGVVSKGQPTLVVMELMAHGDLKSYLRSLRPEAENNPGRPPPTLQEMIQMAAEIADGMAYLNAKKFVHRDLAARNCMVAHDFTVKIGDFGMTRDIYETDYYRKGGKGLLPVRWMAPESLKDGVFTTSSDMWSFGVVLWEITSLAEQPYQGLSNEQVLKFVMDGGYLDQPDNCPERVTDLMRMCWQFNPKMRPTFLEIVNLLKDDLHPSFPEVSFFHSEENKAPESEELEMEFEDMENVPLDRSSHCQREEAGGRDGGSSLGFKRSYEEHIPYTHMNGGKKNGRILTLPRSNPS

IR, sequence (P06213 28-758 limits assumed): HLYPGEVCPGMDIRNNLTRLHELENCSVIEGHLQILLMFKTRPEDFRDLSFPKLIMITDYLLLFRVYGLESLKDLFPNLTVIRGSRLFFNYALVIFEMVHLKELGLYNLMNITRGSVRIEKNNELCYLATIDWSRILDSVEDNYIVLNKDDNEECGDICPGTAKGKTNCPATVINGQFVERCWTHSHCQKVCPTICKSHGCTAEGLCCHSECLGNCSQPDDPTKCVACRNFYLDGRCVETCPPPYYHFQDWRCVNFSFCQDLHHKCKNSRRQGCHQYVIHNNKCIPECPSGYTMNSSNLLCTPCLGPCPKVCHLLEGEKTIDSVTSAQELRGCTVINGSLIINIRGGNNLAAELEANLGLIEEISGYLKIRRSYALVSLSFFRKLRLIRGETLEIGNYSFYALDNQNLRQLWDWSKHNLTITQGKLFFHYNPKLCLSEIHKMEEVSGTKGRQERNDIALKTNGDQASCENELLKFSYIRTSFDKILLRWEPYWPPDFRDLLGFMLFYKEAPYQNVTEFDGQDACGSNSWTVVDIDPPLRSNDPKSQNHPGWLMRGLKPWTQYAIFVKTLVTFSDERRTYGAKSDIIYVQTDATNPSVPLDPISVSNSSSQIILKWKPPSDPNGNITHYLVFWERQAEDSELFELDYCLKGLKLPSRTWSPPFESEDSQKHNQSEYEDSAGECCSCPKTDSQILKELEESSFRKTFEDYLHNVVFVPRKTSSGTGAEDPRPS
IR, sequence (P06213 763-1382 partner limits assumed): as the sequence (P06213 763-1382 partner limits assumed) above
T2 sequence (P06213 28-1370 isoform P06213-2 N42K limits assumed): as the sequence (P06213 28-1370 isoform P06213-2 D734A limits assumed) above, with N15K, A707D counted along it
T2 sequence (P06213 763-1382 partner limits assumed): as the sequence (P06213 763-1382 partner limits assumed) above
T6 sequence (P06213 28-1370 isoform P06213-2 E724A limits assumed): as the sequence (P06213 28-1370 isoform P06213-2 D734A limits assumed) above, with E697A, A707D counted along it
T6 sequence (P06213 763-1382 partner limits assumed): as the sequence (P06213 763-1382 partner limits assumed) above
T4 sequence (P06213 28-1370 isoform P06213-2 F728A/F732A limits assumed): as the sequence (P06213 28-1370 isoform P06213-2 D734A limits assumed) above, with F701A, F705A, A707D counted along it
T4 sequence (P06213 763-1382 partner limits assumed): as the sequence (P06213 763-1382 partner limits assumed) above
T5 sequence (P06213 28-1370 isoform P06213-2 R372A limits assumed): as the sequence (P06213 28-1370 isoform P06213-2 D734A limits assumed) above, with R345A, A707D counted along it
T5 sequence (P06213 763-1382 partner limits assumed): as the sequence (P06213 763-1382 partner limits assumed) above
T1 sequence (P06213 28-1370 isoform P06213-2 F123A limits assumed): as the sequence (P06213 28-1370 isoform P06213-2 D734A limits assumed) above, with F96A, A707D counted along it
T1 sequence (P06213 763-1382 partner limits assumed): as the sequence (P06213 763-1382 partner limits assumed) above
T3 sequence (P06213 28-1370 isoform P06213-2 D523K limits assumed): as the sequence (P06213 28-1370 isoform P06213-2 D734A limits assumed) above, with D496K, A707D counted along it
T3 sequence (P06213 763-1382 partner limits assumed): as the sequence (P06213 763-1382 partner limits assumed) above

Which “IR activation (pY IR)” value (IR F96A) does the source give for CC[C@H](C)[C@H](NC(=O)[C@H](CCC(N)=O)NC(=O)[C@H](C)NC(=O)[C@H](Cc1c[nH]c2ccccc12)NC(=O)[C@H](CCC(=O)O)NC(=O)[C@H](CCC(=O)O)NC(=O)[C@H](CCC(=O)O)NC(=O)[C@H](CC(C)C)NC(=O)[C@H](CO)NC(C)=O)C(=O)N[C@@H](CCC(=O)O)C(=O)N[C@H]1CSSC[C@@H](C(=O)N2CCC[C@H]2C(=O)N[C@@H](CO)C(=O)N[C@@H](CCC(=O)O)C(=O)N[C@@H](CO)C(=O)N[C@@H](Cc2ccccc2)C(=O)N[C@@H](Cc2ccc(O)cc2)C(=O)N[C@@H](CC(=O)O)C(=O)N[C@@H](Cc2c[nH]c3ccccc23)C(=O)N[C@@H](Cc2ccccc2)C(=O)N[C@@H](CCC(=O)O)C(=O)N[C@@H](CCCNC(=N)N)C(=O)N[C@@H](CCC(N)=O)C(=O)N[C@@H](CC(C)C)C(N)=O)NC(=O)CNC(=O)[C@H](CCCNC(=N)N)NC(=O)CNC(=O)[C@H](Cc2ccc(O)cc2)NC(=O)[C@H](C(C)C)NC(=O)[C@H](CCC(=O)O)NC1=O [S597] (Ac-SLEEEWAQIECEVYGRGCPSESFYDWFERQL-NH2; disulfide 11-18) here?
Its value is “great deficiency”.

What about the “IR activation (pY IR)” value (IR N15K) of the same compound?
The value was “fully activated”.

And the “IR activation (pY IR)” value (IR D496K)?
The value was “fully activated”.

What about the “IR activation (pY IR)” value (IR F701A/F705A) of the same compound?
Its value is “fully activated”.

What about the “IR activation (pY IR)” value (IR R345A) of the same compound?
The value was “fully activated”.

What about the “IR activation (pY IR)” value (IR E697A) of the same compound?
The value was “fully activated”.

And the pAKT (IR signaling)?
The pAKT was “increased”.

And the pERK (IR signaling)?
The pERK was “increased”.

What about the “pY IR” value (IR signaling) of the same compound?
Its value is “increased”.

And the “nuclear translocation of SREBP1” value (SREBP1)?
Its value is “stimulated to the same level”.

What about the IR signaling (T47D) of the same compound?
Its IR signaling is “failed to activate”.

What about the cell proliferation (MCF7) of the same compound?
The cell proliferation was “did not promote”.

And the “phosphorylation levels of upstream MAPK pathway proteins (e.g., SOS1, SHP2)” value [1]?
Its value is “significantly reduced”.

And the “affinity for the IR” value (IR)?
Its value is “sub-micromolar”.

What about the blood glucose [2] of the same compound?
The blood glucose was “lowers”.

And the “IR activation (pY IR)” value (IR D707A)?
Its value is “fully activated”.
